We go through 48 molecules from publication PMC4203866, “Identification of plant-derived natural products as potential inhibitors of the Mycobacterium tuberculosis proteasome” (BMC Complementary and Alternative Medicine, 2014).

Where a name gives a salt, the structure may show the parent alone. Where a SMILES comes first, the peptide text is derived from it. The star is where a group is joined. Cbz = O=C(OCc1ccccc1)*

T1 sequence (P9WHT9 58-291): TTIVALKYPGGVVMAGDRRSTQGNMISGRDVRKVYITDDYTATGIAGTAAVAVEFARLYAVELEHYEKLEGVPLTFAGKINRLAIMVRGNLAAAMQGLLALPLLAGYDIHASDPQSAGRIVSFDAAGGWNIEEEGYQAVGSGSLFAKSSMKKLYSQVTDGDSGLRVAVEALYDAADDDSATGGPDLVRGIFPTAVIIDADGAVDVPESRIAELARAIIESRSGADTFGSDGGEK
T1 sequence (P9WHU1 whole entry partner): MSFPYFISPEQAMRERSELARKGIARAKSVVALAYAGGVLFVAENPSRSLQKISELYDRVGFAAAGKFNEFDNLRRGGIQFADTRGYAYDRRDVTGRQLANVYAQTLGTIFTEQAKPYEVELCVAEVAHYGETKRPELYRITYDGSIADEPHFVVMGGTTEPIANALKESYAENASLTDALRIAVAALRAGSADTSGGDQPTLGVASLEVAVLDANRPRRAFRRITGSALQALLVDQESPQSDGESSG

The first assay has as its target T1, Mtb proteasome (Mycobacterium tuberculosis, UniProt P9WHT9).
T1 construct: Proteasome activity of the supernatants was assessed; endogenous in cells; host or cells: Mycobacterium tuberculosis H37Ra (crude lysate supernatant)
Nature of the assay: biochemical.
Details: not given
With `O=C(O)[C@H]1O[C@@H](Oc2cc3oc(-c4ccccc4)cc(=O)c3c(O)c2O)[C@H](O)[C@@H](O)[C@@H]1O` [baicalin], it took 83.5 µM to reach half-maximal inhibition (IC50).
As for silmyarin, the “IA: inhibitory activity of Mtb proteasome” value (“IA: inhibitory activity” for short) worked out at 0.00%.
Regarding `CC(C)C[C@@H](C=O)NC(=O)[C@H](CC(C)C)NC(=O)[C@H](CC(C)C)NC(=O)OCc1ccccc1` [MG132, reference compound] (Cbz-Leu-Leu-Leu-aldehyde), the IC50 (usually the point on the concentration scale where inhibition reaches its midpoint) was 28 µM.
As to `O=c1cc(-c2ccccc2)oc2cc(O)c(O)c(O)c12` [baicalein], 45.7 µM corresponded to half-maximal inhibition (IC50).
The molecule `Cc1cc(O)c2c(c1)C(=O)c1cc(O)cc(O)c1C2=O` [emodin] came in with an IC50 of 81.1 µM.
For the molecule `CC(C)(O)[C@H]1CC[C@@](C)([C@H]2[C@@H](O)C[C@@]3(C)[C@@H]4C[C@H](O[C@@H]5O[C@H](CO)[C@@H](O)[C@H](O)[C@H]5O)[C@H]5C(C)(C)[C@@H](O[C@@H]6OC[C@@H](O)[C@H](O)[C@H]6O)CC[C@@]56C[C@@]46CC[C@]23C)O1` [astragaloside A], the “IA: inhibitory activity” value is 23.59%.
Consider `C=C1C(=O)O[C@@H]2C[C@@]3(C)CCC[C@H](C)C3=C[C@H]12` [alantolactone], for which the “IA: inhibitory activity” value was determined as 32.12%.
In the case of `CC1=C(O)C(=O)C=C2C1=CC=C1[C@@]2(C)CC[C@@]2(C)[C@@H]3C[C@](C)(C(=O)O)CC[C@]3(C)CC[C@]12C` [tripterine], the midpoint of inhibition, the IC50, lay at 114 µM.
With `C[C@H]1CC[C@@H]2N(C1)C[C@H]1[C@@H]3C[C@H]4[C@@H](C[C@H](O)[C@H]5C[C@@H](O)CC[C@@]54C)[C@@H]3CC[C@@H]1[C@]2(C)O` [peimine], the “IA: inhibitory activity” value was 3.05%.
On the same count and under the same terms, in the case of `COc1cc(C)c(C(=O)Oc2cc(C)c(C(=O)O)c(O)c2C)c(OC)c1C` [diffractic acid] it was 0.00%.
The molecule `O=c1c(O)c(-c2ccc(O)cc2)oc2cc(O)cc(O)c12` [kaempferol] registered an IC50 of 107 µM.
Turning to asiaticoside, the “IA: inhibitory activity” value is listed as 0.00%.
Turning to tubeimoside A, the “IA: inhibitory activity” value amounted to 0.00%.
For the molecule `COC(=O)c1c2c(c3ccccc3c1O)OC(C)(C)C=C2` [rubimaillin], the “IA: inhibitory activity” value was 46.37%.
Molecule `O=C(/C=C/c1ccc(O)cc1)c1ccc(O)cc1O` [isoliquiritigenin] displayed a concentration for half-maximal inhibition (IC50) of 63.9 µM.
With `O=c1oc2c(O)c(O)cc3c(=O)oc4c(O)c(O)cc1c4c23` [gallogen], the “IA: inhibitory activity” value was determined as 62.50%.
With `COc1ccc(-c2cc(=O)c3c(O)c(OC)c(O[C@@H]4O[C@H](CO[C@@H]5O[C@@H](C)[C@H](O)[C@@H](O)[C@H]5O)[C@@H](O)[C@H](O)[C@H]4O)cc3o2)cc1` [pectolinarin], half-maximal inhibition (IC50) was put at 50 µM.
As to evodine, the “IA: inhibitory activity” value turned out to be 31.77%.
The same measure, in the same setting: under martin hydrochloride stands 43.66%.

Staying with this assay, now noted: 0.5 h, read-out: IA: inhibitory activity of Mtb proteasome.
On to `COC1=C[C@@H]2[C@@H]3Cc4ccc(OC)c(O)c4[C@]2(CCN3C)CC1=O` [sinomenine], for which the inhibition at 200 µM turned out to be 3.77%.
As for `O=C1c2cccc(O)c2C(=O)c2c(O)cccc21` [1,8-dihydroxyanthraquinone], the inhibition at 200 µM was determined as 36.3%.
`O=C(O)[C@H]1O[C@@H](Oc2cc3oc(-c4ccccc4)cc(=O)c3c(O)c2O)[C@H](O)[C@@H](O)[C@@H]1O` [baicalin]: the inhibition at 200 µM was > 65%.
Regarding `CC(C)=CCOc1c2occc2cc2ccc(=O)oc12` [imperatorin], the inhibition at 200 µM worked out at 15.9%.
Take `Nc1ncnc2c1ncn2[C@@H]1O[C@H](CO)C[C@H]1O` [cordycepin]: the inhibition at 200 µM was determined as 7.77%.
`COc1ccc(-c2cc(=O)c3c(O)c(OC)c(O)c(OC)c3o2)cc1` [nevadensin]: the inhibition at 200 µM turned out to be 48%.
On the same count and under the same terms, under `CC(=O)OC(C)(C)CCC(=O)[C@](C)(O)[C@H]1[C@H](O)C[C@@]2(C)[C@@H]3CC=C4[C@@H](C[C@H](O)[C@@H](O)C4(C)C)[C@]3(C)C(=O)C[C@]12C` [hemslecin A] stands 0%.
Turning to `O[C@H]1[C@H]2c3cc4c(cc3CN3CCC(=C[C@@H]1O)[C@H]23)OCO4` [lycorine hydrochloride], the inhibition at 200 µM came to 0%.
For the molecule `C=C[C@@H]1C2=CCOC(=O)C2=CO[C@H]1O[C@@H]1O[C@H](CO)[C@@H](O)[C@H](O)[C@H]1O` [gentiopicroside], the inhibition at 200 µM came to 0%.
On the same count and under the same terms, under `OC[C@H]1O[C@@H](Oc2cc(O)cc(/C=C/c3ccc(O)cc3)c2)[C@H](O)[C@@H](O)[C@@H]1O` [polydatin] stands 0%.
For `O=c1ccc2ccc(O)c(O)c2o1` [daphnetin], the inhibition at 200 µM came to 0%.
Take `O=C1c2ccccc2C(=O)c2c1ccc(O)c2O` [alizarin]: the inhibition at 200 µM was found to be 0%.
Still for that read-out and setting: under `O=c1c(-c2ccc(O)cc2)coc2cc(O)cc(O)c12` [genistein] stands 45.7%.
Take `O=C1CCC[C@@H]2[C@H]3CCCN4CCC[C@H](CN12)[C@@H]34` [sophoridine]: the inhibition at 200 µM amounted to 11.8%.
As for `O=c1cc(-c2ccccc2)oc2cc(O)c(O)c(O)c12` [baicalein], the inhibition at 200 µM is > 65%.
For the molecule `O=c1c(-c2ccc(O)cc2)coc2cc(O)ccc12` [daidzein], the inhibition at 200 µM came to 0%.
Same read-out and setting: in the case of `Oc1ccc(/C=C/c2cc(O)cc(O)c2)cc1` [resveratrol] it was 0%; in that of `Cc1cc(O)c2c(c1)C(=O)c1cc(O)cc(O)c1C2=O` [emodin], > 65%.
With `O=C(/C=C/c1ccc(O)c(O)c1)O[C@@H]1C[C@](O)(C(=O)O)C[C@@H](O)[C@H]1O` [chlorogenic acid], the inhibition at 200 µM came out at 0%.
Regarding `C=C1C(=O)O[C@@H]2/C=C(\C)CC/C=C(\C)CC[C@@H]12` [costunolide], the inhibition at 200 µM was 41.8%.
As to `C[C@H]1CC[C@@]2(OC1)O[C@H]1C[C@H]3[C@@H]4CC[C@@H]5C[C@@H](O)CC[C@]5(C)[C@H]4CC[C@]3(C)[C@H]1[C@@H]2C` [sarsasapogenin], the inhibition at 200 µM worked out at 0%.
On to `CC[C@@]1(O)C(=O)OCc2c1cc1n(c2=O)Cc2cc3ccccc3nc2-1` [camptothecin], for which the inhibition at 200 µM is 0%.
Turning to `C[C@@H]1CC[C@@]2(OC1)O[C@H]1C[C@H]3[C@@H]4CC=C5C[C@@H](O)CC[C@]5(C)[C@H]4CC[C@]3(C)[C@H]1[C@@H]2C` [diosgenin], the inhibition at 200 µM was found to be 0%.
`CC1=C(O)C(=O)C=C2C1=CC=C1[C@@]2(C)CC[C@@]2(C)[C@@H]3C[C@](C)(C(=O)O)CC[C@]3(C)CC[C@]12C` [tripterine]: the inhibition at 200 µM was > 65%.
For the molecule `N#C[C@H](O[C@@H]1O[C@H](CO[C@@H]2O[C@H](CO)[C@@H](O)[C@H](O)[C@H]2O)[C@@H](O)[C@H](O)[C@H]1O)c1ccccc1` [amygdalin], the inhibition at 200 µM amounted to 1.87%.
For the molecule `COc1ccc2cc1Oc1ccc(cc1)C[C@H]1c3c(cc4c(c3Oc3cc5c(cc3OC)CCN(C)[C@@H]5C2)OCO4)CCN1C` [cepharanthine], the inhibition at 200 µM stood at 0%.
Same read-out and setting: in the case of `COc1cc(C[C@H]2C(=O)OC[C@@H]2Cc2ccc(OC)c(OC)c2)ccc1O` [arctigenin] it was 27.1%; in that of `COc1cc(C(=O)O)cc(OC)c1O` [syringic acid], 0%; in that of `O=c1c(O)c(-c2ccc(O)cc2)oc2cc(O)cc(O)c12` [kaempferol], > 65%.
Consider `COc1cc(/C=C/C(=O)CC(=O)/C=C/c2ccc(O)c(OC)c2)ccc1O` [curcumin], for which the inhibition at 200 µM was > 65%.
Regarding `COc1ccc(C(C)=O)c(O)c1` [paeonol], the inhibition at 200 µM is 0%.
Still for that read-out and setting: in the case of `O=C(/C=C/c1ccc(O)cc1)c1ccc(O)cc1O` [isoliquiritigenin] it was > 65%.
Consider `COc1ccc(-c2cc(=O)c3c(O)cc(O)cc3o2)cc1O` [diosmetin], for which the inhibition at 200 µM amounted to 0%.
On to `COc1c(O)cc(O)c2c(=O)cc(-c3ccccc3)oc12` [wogonin], for which the inhibition at 200 µM worked out at 54%.
In the case of `O=c1ccc2ccc(O)cc2o1` [umbelliferone], the inhibition at 200 µM is 0%.

Staying with this assay, now noted: read-out: IA: inhibitory activity of Mtb proteasome.
Turning to `CC(C)C[C@@H](C=O)NC(=O)[C@H](CC(C)C)NC(=O)[C@H](CC(C)C)NC(=O)OCc1ccccc1` [MG132, reference compound] (Cbz-Leu-Leu-Leu-aldehyde), the inhibition at 100 µM stood at 79.7%.
